From ChEMBL document CHEMBL5303573, “Mapping human microbiome drug metabolism by gut bacteria and their genes” (Nature, 2019) come the findings set out here.

For series [1] the following is noted: bacteroides thetaiotaomicron, 12 h, 2 µM.
Description: The drug is tested on Bacteroides thetaiotaomicron strain: 3731 for biotransformation. The drug concentrations were measured before and after a 12-h incubation by liquid-chromatography-coupled mass spectrometry (LC–MS)
For series [2] the following is noted: bacteroides stercoris, 12 h, 2 µM.
Description: The drug is tested on Bacteroides stercoris strain: ATCC43183 for biotransformation. The drug concentrations were measured before and after a 12-h incubation by liquid-chromatography-coupled mass spectrometry (LC–MS)
A short description of series [3]: The drug is tested on Anaerotruncus colihominis strain: DSM17241 for biotransformation. The drug concentrations were measured before and after a 12-h incubation by liquid-chromatography-coupled mass spectrometry (LC–MS). As to conditions: 2 µM.
For series [4] the following is noted: bacteroides eggerthii, 12 h, 2 µM.
Description: The drug is tested on Bacteroides eggerthii strain: DSM20697 for biotransformation. The drug concentrations were measured before and after a 12-h incubation by liquid-chromatography-coupled mass spectrometry (LC–MS)
Series [5] can be described thus: The drug is tested on Bacteroides vulgatus strain: ATCC8482 for biotransformation. The drug concentrations were measured before and after a 12-h incubation by liquid-chromatography-coupled mass spectrometry (LC–MS). As to conditions: phocaeicola vulgatus, 2 µM.
For series [6] the following is noted: bacteroides thetaiotaomicron, 12 h, 2 µM. This is another data set of the same source.
Description: The drug is tested on Bacteroides thetaiotaomicron strain: 7330 for biotransformation. The drug concentrations were measured before and after a 12-h incubation by liquid-chromatography-coupled mass spectrometry (LC–MS)
Series [7] in a line: The drug is tested on Providencia rettgeri strain: DSM1131 for biotransformation. The drug concentrations were measured before and after a 12-h incubation by liquid-chromatography-coupled mass spectrometry (LC–MS). It counts as ADME. Details: dose 2 uM, timepoint 0 vs 12 hours. As to conditions: 2 µM.
A short description of series [8]: The drug is tested on Clostridium scindens strain: ATCC35704 for biotransformation. The drug concentrations were measured before and after a 12-h incubation by liquid-chromatography-coupled mass spectrometry (LC–MS). As to conditions: 2 µM.
Series [9] can be described thus: The drug is tested on Bacteroides xylanisolvens strain: DSM18836 for biotransformation. The drug concentrations were measured before and after a 12-h incubation by liquid-chromatography-coupled mass spectrometry (LC–MS). As to conditions: 2 µM.
The conditions of series [10]: bacteroides fragilis, 12 h, 2 µM.
Description: The drug is tested on Bacteroides fragilis strain: NCTC 9343 for biotransformation. The drug concentrations were measured before and after a 12-h incubation by liquid-chromatography-coupled mass spectrometry (LC–MS)
For series [11] the following is noted: bacteroides intestinalis, 12 h, 2 µM.
Description: The drug is tested on Bacteroides intestinalis strain: DSM17393 for biotransformation. The drug concentrations were measured before and after a 12-h incubation by liquid-chromatography-coupled mass spectrometry (LC–MS)
Series [12] can be described thus: The drug is tested on Bifidobacterium longum subsp. Infantis strain: CCUG52486 for biotransformation. The drug concentrations were measured before and after a 12-h incubation by liquid-chromatography-coupled mass spectrometry (LC–MS). As to conditions: 2 µM.
Series [13] can be described thus: The drug is tested on Bacteroides pectinophilus strain: ATCC43243 for biotransformation. The drug concentrations were measured before and after a 12-h incubation by liquid-chromatography-coupled mass spectrometry (LC–MS). As to conditions: 2 µM.
For series [14] the following is noted: bacteroides thetaiotaomicron, 12 h, 2 µM. The source holds these as a separate data set.
Description: The drug is tested on Bacteroides thetaiotaomicron strain: VPI-5482 for biotransformation. The drug concentrations were measured before and after a 12-h incubation by liquid-chromatography-coupled mass spectrometry (LC–MS)
Series [15] is described as follows: The drug is tested on Collinsella intestinalis strain: DSM13280 for biotransformation. The drug concentrations were measured before and after a 12-h incubation by liquid-chromatography-coupled mass spectrometry (LC–MS). As to conditions: 2 µM.
The conditions of series [16]: parabacteroides johnsonii, 12 h, 2 µM.
Description: The drug is tested on Parabacteroides johnsonii strain: DSM18315 for biotransformation. The drug concentrations were measured before and after a 12-h incubation by liquid-chromatography-coupled mass spectrometry (LC–MS)
Series [17] can be described thus: The drug is tested on Parabacteroides merdae strain: ATCC43184 for biotransformation. The drug concentrations were measured before and after a 12-h incubation by liquid-chromatography-coupled mass spectrometry (LC–MS). As to conditions: 2 µM.
The conditions of series [18]: bacteroides fragilis, 12 h, 2 µM. This is another data set of the same source.
Description: The drug is tested on Bacteroides fragilis strain: DS-208 for biotransformation. The drug concentrations were measured before and after a 12-h incubation by liquid-chromatography-coupled mass spectrometry (LC–MS)
Series [19] in a line: The drug is tested on Ruminococcus lactaris strain: ATCC29176 for biotransformation. The drug concentrations were measured before and after a 12-h incubation by liquid-chromatography-coupled mass spectrometry (LC–MS). As to conditions: 2 µM.

Turning to `COc1ccc2c(c1)c(CC(=O)O)c(C)n2C(=O)c1ccc(Cl)cc1` [INDOMETHACIN], the “Bacterial Biotransformation” value is reported as “Compound metabolized” in series [1]; “Compound metabolized” in series [2]; “Compound NOT metabolized” in series [3]; “Compound NOT metabolized” in series [4]; “Compound metabolized” in [5]; “Compound metabolized” in [6]. Further, the “Bacterial Biotransformation” value in [7] is recorded as “Compound NOT metabolized”; in [8], “Compound NOT metabolized”; in series [9], “Compound metabolized”; in series [10], “Compound metabolized”; in [11] it was “Compound metabolized”; in series [12] it was “Compound metabolized”. The “Bacterial Biotransformation” value is given as “Compound metabolized” in series [13]; “Compound metabolized” in [14]; “Compound NOT metabolized” in series [15]; “Compound metabolized” in [16]; “Compound metabolized” in series [17]; “Compound metabolized” in series [18].

Take `Nc1nc(N)nc(-c2cc(Cl)ccc2Cl)n1.O=C(O)/C=C\C(=O)O` [IRSOGLADINE MALEATE]: the “Bacterial Biotransformation” value in [1], in series [2], in series [3], in series [4], in series [5] and in [6] was “Compound NOT metabolized” throughout. Also, the “Bacterial Biotransformation” value in series [7], in [8], in series [9], in [10], in series [11] and in [13] was “Compound NOT metabolized” in each case. The “Bacterial Biotransformation” value in series [14] is “Compound NOT metabolized”; in series [15], “Compound NOT metabolized”; in series [16] it was “Compound metabolized”; in series [17] it was “Compound NOT metabolized”; in series [19], “Compound NOT metabolized”; in series [18], “Compound NOT metabolized”.

Consider `CCN(CC)CC#CCOC(=O)C(O)(c1ccccc1)C1CCCCC1.Cl` (stereo unspecified) [OXYBUTYNIN CHLORIDE], for which the “Bacterial Biotransformation” value in series [1] is given as “Compound NOT metabolized”; in series [2] it was “Compound NOT metabolized”; in series [3] it was “Compound NOT metabolized”; in series [5] it was “Compound metabolized”; in [6] it was “Compound NOT metabolized”; in series [7], “Compound NOT metabolized”. Moreover, the “Bacterial Biotransformation” value was “Compound NOT metabolized” in series [8]; “Compound metabolized” in [9]; “Compound NOT metabolized” in [11]; “Compound NOT metabolized” in series [14]; “Compound NOT metabolized” in [15]; “Compound NOT metabolized” in series [16]. For the same molecule, the “Bacterial Biotransformation” value in [17], in series [19] and in series [18] was “Compound NOT metabolized” in each case.

Consider `CC(C)(C(=O)O)c1ccc(C(O)CCCN2CCC(C(O)(c3ccccc3)c3ccccc3)CC2)cc1` (stereo unspecified) [FEXOFENADINE], for which the “Bacterial Biotransformation” value in series [1], in series [2], in series [3], in series [4], in series [5] and in [6] was “Compound NOT metabolized” in each case. The “Bacterial Biotransformation” value in series [7], in series [8], in series [10], in [11], in series [12] and in [13] was “Compound NOT metabolized” in each case. The “Bacterial Biotransformation” value in series [14], in series [15], in series [16], in [17] and in series [18] was “Compound NOT metabolized” throughout.

Take `CC(CCc1ccccc1)NCC(O)c1ccc(O)c(C(N)=O)c1` (stereo unspecified) [LABETALOL]: the “Bacterial Biotransformation” value in [1], in series [2], in series [4], in [5], in series [6] and in series [7] was “Compound NOT metabolized” in each case. In addition, the “Bacterial Biotransformation” value in series [9], in series [10], in series [11], in [12], in [13] and in series [14] was “Compound NOT metabolized” throughout. The “Bacterial Biotransformation” value in series [15], in series [16], in series [17], in series [19] and in [18] was “Compound NOT metabolized” throughout.

For `CN1CCc2c(c3ccccc3n2Cc2ccccc2)C1.CN1CCc2c(c3ccccc3n2Cc2ccccc2)C1.O=S(=O)(O)c1cccc2c(S(=O)(=O)O)cccc12`, the “Bacterial Biotransformation” value in [1], in series [2], in series [3], in [4], in series [5] and in [6] was “Compound NOT metabolized” in each case. Also, the “Bacterial Biotransformation” value in series [7], in series [8], in [9], in [10], in series [11] and in [12] was “Compound NOT metabolized” in each case. For the same molecule, the “Bacterial Biotransformation” value in series [13], in series [14], in series [15], in series [16], in [17] and in [18] was “Compound NOT metabolized” throughout.

In the case of `CN1CCC(OC(c2ccccc2)c2ccccc2)CC1`, the “Bacterial Biotransformation” value in series [1], in series [2], in [3], in series [4], in [5] and in series [6] was “Compound NOT metabolized” in each case. Moreover, the “Bacterial Biotransformation” value in series [7], in series [8], in series [10], in series [11], in [12] and in series [13] was “Compound NOT metabolized” throughout. The “Bacterial Biotransformation” value in series [14], in [15], in series [16], in series [17], in series [19] and in series [18] was “Compound NOT metabolized” in each case.
